Where a name gives a salt, the structure may show the parent alone.
Test system: cholesterol biosynthesis wherein HMG-CoA reductase acts as a rate limiting enzyme (rat liver microsome and sup fraction)
Experiment: Test A: Inhibition of Cholesterol Biosynthesis from Acetate In Vitro
Format: biochemical, male Wistar rat
Settings: for Relative activities by Test A: relative to activity of CS-514 evaluated to be 1; for IC50: [2-14C]sodium acetate incorporation, rat liver microsome + sup fraction, 2 hours, 37° C., read-out: I50 (Inhibitory activities by Test A)
Protocol: Enzyme solution was prepared from liver of male Wistar rat billialy cannulated and discharged bile for over 24 hours. Liver was cut out at mid-dark and microsome and supernatant fraction which was precipitable with 40-80% of saturation of ammonium sulfate (sup fraction) were prepared from liver homogenate according to the modified method of Knauss et. al.; Kuroda, M., et. al., Biochim. Biophys. Acta, 489, 119 (1977). For assay of cholesterol biosynthesis, microsome (0.1 mg protein) and sup fraction (1.0 mg protein) were incubated for 2 hours at 37° C. in 200 μl of the reaction mixture containing ATP; 1 mM, Glutathione; 6 mM, Glucose-1-phosphate; 10 mM, NAD; 0.25 mM, NADP; 0.25 mM, CoA; 0.04 mM and 0.2 mM [2-^14 C]sodium acetate (0.2 μCi) with 4 μl of test compound solution dissolved in water or dimethyl sulfoxide. To stop reaction and saponify, 1 ml of 15% EtOH--KOH was added to the reactions and heated at 75° C. for 1 hour. […] Inhibitory activity of compounds was indicated with IC50.

Relative activities by Test A	SMILES	IC50 [nM]
0.37	CCOC(=O)CC(O)CC(O)/C=C/c1c(CC)nc2ccccc2c1-c1ccc(F)cc1 (stereo not shown) [Compound I-117]	–
–	CC(C)c1nc2ccccc2c(-c2ccc(F)cc2)c1/C=C/C(O)CC(O)CC(=O)O (stereo not shown) [Compound I-51, Sodium salt of (E)-3,5-dihydroxy-7-[4'-(4"-fluorophenyl)-2'-(1"-methylethyl)-quinolin-3'-yl]-hept-6-enoic acid]	10
0.76	CC(C)c1nc2c(Cl)cc(Cl)cc2c(-c2ccc(F)cc2)c1/C=C/C(O)CC(O)CC(=O)O (stereo not shown) [Compound I-522]	–
–	CCC(C)C(=O)OC1CC(O)C=C2C=CC(C)C(CCC(O)CC(O)CC(=O)O)C21 (stereo not shown) [CS-514, reference compound]	9

Source: US5102888A, “Quinoline type mevalonolactones useful for treating hyperlipidemia and related diseases” (Nissan Chemical Industries Ltd., priority 1987, dated 1992)
